The source of these data is patent publication US8586755B2, “Substituted nicotinamides as KCNQ2/3 modulators” (Grünenthal GmbH, priority 2009, dated 2013).

The assay addresses T1, KCNQ2/3 channels (Homo sapiens, UniProt O43525+O43526).
T1 construct: expressed in transfected cells
Description: Fluorescence assay using a voltage sensitive dye (fluorimetry). Type of assay: cell-based. The following applies: CHO-K1 cells expressing KCNQ2/3 channels; for EC50: agonistic activity; for Emax: retigabine 50 μM = 100%, read-out: Fluorimetry % efficacy (retigabine 50 μM = 100%). The procedure, abridged: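 Agonist EC50s come from the F2 vs F1 fluorescence comparison, F2 taken at the peak after KCl depolarisation (92 mM final) and F1 after 30 min compound exposure at room temperature. Assay uses KCNQ2/3-expressing CHO-K1 cells stained 45 min with a red voltage-sensitive dye in pH 7.4 ES buffer.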

The structures appear in SMILES notation.

With `COCCNC(=O)c1cccnc1SCCC(F)(F)c1ccc(F)cc1` [compound 171, 2-[[3,3-Difluoro-3-(4-fluorophenyl)-propyl]sulfanyl]-N-(2-methoxy-ethyl)-pyridine-3-carboxylic acid amide], a half-maximal effect (EC50) was put at 432 nM and the Emax turned out to be 181%.
For `COCCNC(=O)c1cccnc1SCCCc1ccc(F)cc1` [compound 172, 2-[3-(4-Fluorophenyl)-propylsulfanyl]-N-(2-methoxy-ethyl)-pyridine-3-carboxylic acid amide], the midpoint of the response, the EC50, lay at 1050 nM and the Emax came to 196%.
Turning to `O=C(NCc1ccc(F)cc1O)c1cccnc1SCCCc1ccc(F)cc1` [compound 173, N-[(4-Fluoro-2-hydroxy-phenyl)-methyl]-2-[3-(4-fluorophenyl)-propylsulfanyl]-pyridine-3-carboxylic acid amide], the EC50 (as a rule, the concentration needed to bring the measured effect to its halfway point) came out at 156 nM and the Emax was 185%.
As for `O=C(NCc1ccco1)c1cccnc1SCCCc1ccc(F)cc1` [compound 174, 2-[3-(4-Fluorophenyl)-propylsulfanyl]-N-(furan-2-yl-methyl)-pyridine-3-carboxylic acid amide], the concentration for a half-maximal effect (EC50) is 134 nM and the Emax was 213%.
Consider `Cc1ccc(CNC(=O)c2cccnc2SCCCc2ccc(F)cc2)o1` [compound 175, 2-[3-(4-Fluorophenyl)-propylsulfanyl]-N-[(5-methyl-furan-2-yl)-methyl]-pyridine-3-carboxylic acid amide], for which the EC50 was determined as 126 nM and the Emax was found to be 173%.
On to `CC(CCc1ccc(F)cc1)Sc1ncccc1C(=O)NCc1ccc(F)cc1` (stereo not drawn) [compound 176, N-[(4-Fluorophenyl)-methyl]-2-[[3-(4-fluorophenyl)-1-methyl-propyl]sulfanyl]-pyridine-3-carboxylic acid amide], for which the EC50 is 40 nM and the Emax turned out to be 108%.
Turning to `CC(C)CCNC(=O)c1cccnc1SC(C)CCc1ccc(F)cc1` (stereo not drawn) [compound 177, 2-[[3-(4-Fluorophenyl)-1-methyl-propyl]sulfanyl]-N-(3-methyl-butyl)-pyridine-3-carboxylic acid amide], the midpoint of the response, the EC50, lay at 76 nM and the Emax was determined as 192%.
Taken in the same sequence, the figures for `CC(CCc1ccc(F)cc1)Sc1ncccc1C(=O)NCC1C2CCC1CC2` (stereo not drawn) [compound 178, N-(7-Bicyclo[2.2.1]heptanyl-methyl)-2-[[3-(4-fluorophenyl)-1-methyl-propyl]sulfanyl]-pyridine-3-carboxylic acid amide] were 96 nM and 270%.
Turning to `O=C(NCC1CCCO1)c1cccnc1SCCC(F)(F)c1ccc(F)cc1` (stereo not drawn) [compound 179, 2-[[3,3-Difluoro-3-(4-fluorophenyl)-propyl]sulfanyl]-N-(tetrahydro-furan-2-yl-methyl)-pyridine-3-carboxylic acid amide], it took 378 nM to reach a half-maximal effect (EC50) and the Emax was 234%.
Turning to `O=C(NCC1CCCO1)c1cccnc1SCCCc1ccc(F)cc1` (stereo not drawn) [compound 181, 2-[3-(4-Fluorophenyl)-propylsulfanyl]-N-(tetrahydro-furan-2-yl-methyl)-pyridine-3-carboxylic acid amide], the response was half-maximal at 1550 nM (EC50) and the Emax worked out at 254%.
Take `COC(CNC(=O)c1cccnc1SCCCc1ccc(F)cc1)C(C)(C)C` (stereo not drawn) [compound 182, 2-[3-(4-Fluorophenyl)-propylsulfanyl]-N-(2-methoxy-3,3-dimethyl-butyl)-pyridine-3-carboxylic acid amide]: the EC50 came out at 366 nM and the Emax is 110%.
Consider `Cc1cccc(CNC(=O)c2cccnc2SCCC(F)(F)c2ccc(F)cc2)c1` [compound 183, 2-[[3,3-Difluoro-3-(4-fluorophenyl)-propyl]sulfanyl]-N-(m-tolyl-methyl)-pyridine-3-carboxylic acid amide], for which the EC50 is 43 nM and the Emax is 109%.
With `Cc1cc(C)cc(CNC(=O)c2cccnc2SCCC(F)(F)c2ccc(F)cc2)c1` [compound 184, 2-[[3,3-Difluoro-3-(4-fluorophenyl)-propyl]sulfanyl]-N-[(3,5-dimethyl-phenyl)-methyl]-pyridine-3-carboxylic acid amide], the Emax was 23%.
Consider `CCCNC(=O)c1cccnc1SCCC(F)(F)c1ccc(F)cc1` [compound 185, 2-[[3,3-Difluoro-3-(4-fluorophenyl)-propyl]sulfanyl]-N-propyl-pyridine-3-carboxylic acid amide], for which the EC50 worked out at 167 nM and the Emax is 212%.
On to `CCCCCCNC(=O)c1cccnc1SCCC(F)(F)c1ccc(F)cc1` [compound 186, 2-[[3,3-Difluoro-3-(4-fluorophenyl)-propyl]sulfanyl]-N-hexyl-pyridine-3-carboxylic acid amide], for which the EC50 came to 236 nM and the Emax was found to be 191%.
Turning to `O=C(NCC1CCOC1)c1cccnc1SCCC(F)(F)c1ccc(F)cc1` (stereo not drawn) [compound 187, 2-[[3,3-Difluoro-3-(4-fluorophenyl)-propyl]sulfanyl]-N-(tetrahydro-furan-3-yl-methyl)-pyridine-3-carboxylic acid amide], the EC50 worked out at 805 nM and the Emax was 231%.
Consider `O=C(NCC1CCCOC1)c1cccnc1SCCC(F)(F)c1ccc(F)cc1` (stereo not drawn) [compound 188, 2-[[3,3-Difluoro-3-(4-fluorophenyl)-propyl]sulfanyl]-N-(tetrahydro-pyran-3-yl-methyl)-pyridine-3-carboxylic acid amide], for which the EC50 was found to be 315 nM and the Emax was determined as 210%.
`O=C(NCC1CCOCC1)c1cccnc1SCCC(F)(F)c1ccc(F)cc1` [compound 189, 2-[[3,3-Difluoro-3-(4-fluorophenyl)-propyl]sulfanyl]-N-(tetrahydro-pyran-4-yl-methyl)-pyridine-3-carboxylic acid amide]: the EC50 is 287 nM and the Emax was determined as 161%.
`O=C(NCc1ccco1)c1cccnc1SCCC(F)(F)c1ccc(F)cc1` [compound 190, 2-[[3,3-Difluoro-3-(4-fluorophenyl)-propyl]sulfanyl]-N-(furan-2-yl-methyl)-pyridine-3-carboxylic acid amide]: a half-maximal response (EC50) required 26 nM and the Emax worked out at 214%.
`Cc1ccc(CNC(=O)c2cccnc2SCCC(F)(F)c2ccc(F)cc2)o1` [compound 191, 2-[[3,3-Difluoro-3-(4-fluorophenyl)-propyl]sulfanyl]-N-[(5-methyl-furan-2-yl)-methyl]-pyridine-3-carboxylic acid amide]: the EC50 was determined as 37 nM and the Emax worked out at 202%.
Taken in the same sequence, the figures for `CCCCCNC(=O)c1cccnc1SCCC(F)(F)c1ccc(F)cc1` [compound 192, 2-[[3,3-Difluoro-3-(4-fluorophenyl)-propyl]sulfanyl]-N-pentyl-pyridine-3-carboxylic acid amide] were 32 nM and 195%.
Regarding `COC(C)CCNC(=O)c1cccnc1SCCC(F)(F)c1ccc(F)cc1` (stereo not drawn) [compound 193, 2-[[3,3-Difluoro-3-(4-fluorophenyl)-propyl]sulfanyl]-N-(3-methoxy-butyl)-pyridine-3-carboxylic acid amide], the EC50 was determined as 371 nM and the Emax was determined as 206%.
`COC(C)CNC(=O)c1cccnc1SCCC(F)(F)c1ccc(F)cc1` (stereo not drawn) [compound 194, 2-[[3,3-Difluoro-3-(4-fluorophenyl)-propyl]sulfanyl]-N-(2-methoxy-propyl)-pyridine-3-carboxylic acid amide]: the EC50 is 232 nM and the Emax came out at 203%.
